The values that follow are results of earlier work, collected in US20220015356A1, “AQUEOUS SOLUTIONS OF POORLY SOLUBLE PESTICIDES USING POLYALKYOXYLATED ALCOHOLS” (priority 2018, published 2022).

SMILES strings stand for the structures.

For this series the following is noted: at 20° C.

With `COC(=O)N(OC)c1ccccc1COc1ccn(-c2ccc(Cl)cc2)n1` [pyraclostrobin], the water solubility was less than 1.9 µg/mL.
